Like-named read-outs stand apart in the source and are kept apart here.
Key:
Assay type in all cases: cell-based
[1] = system: luciferase-expressing Saccharomyces cerevisiae; conditions: S. cerevisiae, 8 hours culturing after addition
Method: Transformation was performed using Saccharomyces cerevisiae distributed by Biotechnology Center, National Institute of Technology and Evaluation, whereby luciferase-expressing microorganisms were produced. A vector pYES2 (Thermo Fisher Scientific) was digested with HindIII and XbaI, and a synthetic (synthesized by Thermo Fisher Scientific on commission) a factor-luciferase gene having a HindIII cut site at one end and an XbaI cut site at the other end was inserted into the vector. The microorganisms were transformed by the a factor-luciferase gene-inserted pYES2 according to the method described in an instruction manual of pYES2. The luciferase-expressing microorganisms were inoculated using a platinum loop into YPD broth (yeast extract 1 wt % (Difco), bacto peptone 2 wt % (Difco), and glucose 2 wt %) and were shake-cultured at 200 rpm at 30° C. for 15 hours. Then, the thus-obtained broth was resuspended in 125-ml YPD broth (containing 100 mM potassium hydrogen phosphate buffer; pH: 6) to a final optical density (hereinafter sometimes abbreviated as “OD”) of 0.1 OD/ml.
The optical density of the broth was measured under the same conditions as for “Method of measuring the optical density of broth” described later.
Further, the resuspended broth was continued to be shake-cultured at 1100 rpm at 30° C. for about 17 hours until OD was 20 to 30. When OD was 20 to 30, the broth was centrifuged (1500 g, 10 min), and resuspended in 125-ml galactose-inducing broth (the YPD broth containing 100 mM potassium phosphate buffer and also containing 2% galactose instead of glucose; pH: 6), followed by culturing at 1100 rpm at 30° C. for 2 hours.
(§1) Subsequently, the surfactant described in Table 1 was added to the broth in the amount (wt %) described in Table 1, and the broth was cultured at 1100 rpm at 30° C. for 8 hours. Subsequently, the broth was sampled for measuring the optical density (optical density at the end of culturing) and for measuring the secretion efficiency. Then, these samples were subjected to centrifugation using a centrifuge to separate bacteria and the supernatant from the broth. Then, the supernatant and the bacteria were collected.
(§2) The optical density of the broth containing the microorganisms collected by sampling was measured in a quartz cell (light path of 1 cm) using a spectrophotometer (UV-1700, Shimadzu Corporation).
(§3) The broth was centrifuged at 1500 rpm at 4° C. for 5 minutes, and the supernatant was discarded. The precipitate was resuspended in a saline solution in an amount equal to the amount of the sample solution, and was diluted in the saline solution to obtain an appropriate absorbance (0.1 to 0.8). Then, the absorbance at 600 nm was measured. The optical density of the broth was calculated using the following mathematical formula (1).
(§4) Broth optical density(OD)=(Absorbance of diluted broth at 600 nm)×dilution factor of broth (Mathematical formula 1)

[2] = system: luciferase-expressing Pichia pastoris; conditions: 8 hours culturing after addition
Method: Transformation was performed using Pichia pastoris distributed by Biotechnology Center, National Institute of Technology and Evaluation, whereby luciferase-expressing microorganisms were produced. A vector pPICZ a (Thermo Fisher Scientific) was digested with XhoI and XbaI, and a synthetic (synthesized by Thermo Fisher Scientific on commission) luciferase gene having an XhoI cut site at one end and an XbaI cut site at the other end was inserted into the vector. The microorganisms were transformed by the luciferase gene-inserted pPICZ a according to the method described in an instruction manual of pPICZ a. The luciferase-expressing microorganisms were inoculated using a platinum loop into BMGY broth, and were shake-cultured at 200 rpm at 30° C. for 15 hours. Then, the thus-obtained broth was resuspended in 125-ml BMGY broth (yeast extract 1 wt % (Difco), bacto peptone 2 wt % (Difco), yeast nitrogen base w/o amino acid 1.34 wt % (Difco), glucose 2 wt %, and 100 mM potassium hydrogen phosphate; pH: 6.0) to a final OD of 0.1 OD/ml. Further, the resuspended broth was continued to be shake-cultured at 1100 rpm at 30° C. for about 17 hours until OD was 20 to 30. When OD was 20 to 30, the broth was centrifuged (1500 g, 10 min), and resuspended in 125-ml BMMY broth, followed by culturing at 1100 rpm at 30° C. for 2 hours.
as §1, with “Two hours later, the surfactant” for “Subsequently, the surfactant”, “in Table 2 was added” for “in Table 1 was added”, “in Table 2, and the” for “in Table 1, and the”
as §2, §3, §4

[3] = system: acid phosphatase-expressing Candida boidinii; conditions: 8 hours culturing after addition
Method: Candida boidinii was transformed and acid phosphatase-expressing microorganisms were produced based on a method described in a known document (Regulation and evaluation of five methanol-inducible promoters in the methylotrophic yeast Candida boidinii, H. Yurimoto et al., Biochimica et Biophysica Acta, 1493, 2000, pp. 56-63). The acid phosphatase-expressing microorganisms were inoculated using a platinum loop into BMGY broth, and were shake-cultured at 200 rpm at 30° C. for 15 hours. Then, the thus-obtained broth was resuspended in 125-ml BMGY broth to a final OD of 0.1 OD/ml. Further, the resuspended broth was continued to be shake-cultured at 1100 rpm at 30° C. for about 17 hours until OD was 2 to 5. When OD was 2 to 5, methanol was added to a concentration of 2 v/v %, followed by culturing at 1100 rpm at 30° C. for 2 hours.
Two hours later, the surfactant described in Table 3 was added to the broth in the weight described in Table 3, and the broth was cultured at 1100 rpm at 30° C. for 8 hours. Eight hours later, the broth was sampled for measuring the optical density (optical density at the end of culturing), and was subjected to centrifugation using a centrifuge to separate bacteria and the supernatant from the broth. Then, the supernatant and the bacteria were collected.
as §2, §3, §4

[4] = surfactant 0.03 wt % of broth, Examples 2, 5-11
[5] = surfactant 0.03 wt % of broth, Examples 13, 16-22
[6] = surfactant 0.03 wt % of broth, Examples 24, 27-33

Row | Compound | Optical density (OD) of broth at the end of culturing [1, 4] [OD] | Optical density (OD) of broth at the end of culturing [2, 5] [OD] | Optical density (OD) of broth at the end of culturing [3, 6] [OD] | further results
1 | CCCCCCCCCCCC[N+](C)(C)CCCS(=O)(=O)O.[OH-] [Surfactant (A3-3), dodecyldimethyl(3-sulfopropyl)ammonium hydroxide] | 21.8 | 27.6 | 8.07 | –
2 | sodium (2-dodecylamino)ethanesulfonate [Surfactant (A3-1)] | 22.0 | 27.0 | 5.7 | –
3 | CCCCCCCCCCCC[N+](C)(C)CC(=O)[O-] [Surfactant (A3-5), betaine lauryldimethylaminoacetate] | 20.4 | 26.1 | 7.33 | –
4 | sodium polyoxyethylene (average 3 mol adduct) lauryl ether acetate [Surfactant (A1-2)] | 22.1 | 29.1 | 5.68 | –
5 | CCCCCCCCCCCC[N+](C)(C)C.[Cl-] [Surfactant (A2-1), lauryl trimethyl ammonium chloride] | 13.8 | 15.8 | 3.94 | –
6 | sodium polyoxyethylene (average 2.5 mol adduct) lauryl ether sulfate [Surfactant (A1-1)] | 21.9 | 26.8 | 5.77 | –
7 | CCCCCCCCCCCCNCCC(=O)O | 21.2 | 21.1 | 6.0 | Optical density (OD) of broth at the end of culturing ([1]; surfactant 0.003 wt % of broth, Example 1): 23.5 OD; Optical density (OD) of broth at the end of culturing ([1]; surfactant 0.3 wt % of broth, Example 3): 18.2 OD; Optical density (OD) of broth at the end of culturing ([1]; surfactant 3 wt % of broth, Example 4): 10.9 OD; Optical density (OD) of broth at the end of culturing ([2]; surfactant 0.003 wt % of broth, Example 12): 22.2 OD; Optical density (OD) of broth at the end of culturing ([2]; surfactant 0.3 wt % of broth, Example 14): 18.1 OD; Optical density (OD) of broth at the end of culturing ([2]; surfactant 3 wt % of broth, Example 15): 10.5 OD; Optical density (OD) of broth at the end of culturing ([3]; surfactant 0.003 wt % of broth, Example 23): 5.1 OD; Optical density (OD) of broth at the end of culturing ([3]; surfactant 0.3 wt % of broth, Example 25): 2.7 OD; Optical density (OD) of broth at the end of culturing ([3]; surfactant 3 wt % of broth, Example 26): 2.7 OD
8 | CCCCCCCCCCCCCCCCOP(=O)([O-])OCC[N+](C)(C)C [Surfactant (A3-4), miltefosine, reference compound] | 21.1 | 30.7 | 7.91 | –

— patent US20200032313A1 (SANYO CHEMICAL INDUSTRIES, LTD., priority 2017, published 2020)
